Assays:
Type in all cases: cell-based
Hela cells = experiment: Cell viability assay (WST-1), Hela cells; details: Homo sapiens, HeLa, WST-1, 48-72 hrs, 0.5% fetal calf serum
Description: (§1) Jurkat and Hela cells were cultured in RPMI and EMEM media, respectively, containing 0.5% fetal calf serum. Cells were plated in a volume of 100 μL in a 96 well format. Test compounds were included in the culture media at concentrations ranging from 1 nM to 10 μM for a period of 48-72 hrs. Cell viability was determined using the WST-1 calorimetric mitochondrial reduction assay. Briefly, 10 μL of WST-1 reagent was included in the culture well for a period of 1 to 4 hrs. The WST-1 reaction was read on a multiwell spectrophotometer as the difference in the absorbance between 450 nm and 600 nm (baseline). Absorbance was proportional to the number of living cells in the culture well. Concentration response curves and IC50 values were calculated using GraphPAD Prism graphing and curve fitting program.

Jurkat cells = experiment: Cell viability assay (WST-1), Jurkat cells; details: Homo sapiens, WST-1, 48-72 hrs, 0.5% fetal calf serum
Description: as §1

[1] = test system: Jurkat T-cell leukemic cells; experiment: Cell cycle assay (Example 163), G2/M block in Jurkat cells; details: Homo sapiens, Jurkat, 24 h, flow cytometry (PI), Table 2
Description: (§2) MCF-7 breast cancer cells and Jurkat T-cell leukemic cells were grown (and maintained) in EMEM and RPMI media, respectively, containing 10% fetal calf serum.
Test agents were added a concentration of 0.1 μM. Twenty-fours after test agent addition, cells were analyzed for cell cycle status as described below.
(§3) Cell cycle status was analyzed by flow cytometry. Briefly, cells were collected and washed with FACs buffer (Pharmingen) and resuspended and fixed in 1 mL of 80% ethanol for 1 hr. Cells were washed with FACs buffer and resuspended in propidium iodide(PI)/RNase staining buffer (Pharmingen). PI is a fluorescent dye that labels nucleic acids such as DNA. The fluorescence within a cell (in the presence of PI) is proportional to the amount of DNA within a cell. The cell content of DNA is an indices of status in the cell cycle. […] Cells in the S phase have DNA content that lies between these extremes.
(§4) For testing of cell cycle effects of test agents the percentage of cells within the G1 and G2/M phase were measured.

[2] = test system: MCF-7 breast cancer cells; experiment: Cell cycle assay (Example 163), G2/M block in MCF-7 cells; details: Homo sapiens, MCF7, 24 h, flow cytometry (PI), Table 2
Description: as §2
Cells were allowed to adhere for 24 hrs. After adherence, cell culture media was changed to that containing 0.5% FCS. Thirty minutes post-media change, test compounds were added at a concentration of 1 μM. Twenty-fours after test agent addition, cells were analyzed for cell cycle status as described below.
as §3, §4

SMILES	IC50 (Hela cells)	IC50 (Jurkat cells)	activation at 0.1 µM [1]	activation at 1 µM [2]
Oc1cc(Nc2cccnc2)cc(-c2ccccc2Cl)c1 [2′-Chloro-5-(pyridin-3-ylamino)-biphenyl-3-ol]	1 to 30 µM	> 3 µM	< 50%	< 50%
Oc1cc(Nc2cccnc2)cc(-c2ccc3[nH]ccc3c2)c1 [3-(1H-Indol-5-yl)-5-(pyridin-3-ylamino)-phenol]	1 to 30 µM	0.001 to 0.999 µM	≥ 50%	< 50%
Oc1cc(Nc2cnccn2)cc(-c2cccc3[nH]ccc23)c1 [3-(1H-Indol-4-yl)-5-(pyrazin-2-ylamino)-phenol]	0.001 to 0.999 µM	0.001 to 0.999 µM	≥ 50%	≥ 50%
Nc1ccc(C(=O)c2cc(O)cc(-c3cccc4[nH]ccc34)c2)cn1 [(6-Amino-pyridin-3-yl)-[3-hydroxy-5-(1H-indol-4-yl)-phenyl]-methanone]	1 to 30 µM	0.001 to 0.999 µM	< 50%	≥ 50%
O=C(c1ccc(CO)nc1)c1cc(O)cc(-c2cccc3[nH]ccc23)c1 [[3-Hydroxy-5-(1H-indol-4-yl)-phenyl]-(6-hydroxymethyl-pyridin-3-yl)-methanone]	> 3 µM	1 to 30 µM	< 50%	< 50%
O=C(c1ccc(O)nc1)c1cc(O)cc(-c2cccc3[nH]ccc23)c1 [[3-Hydroxy-5-(1H-indol-4-yl)-phenyl]-(6-hydroxypyridin-3-yl)-methanone]	0.001 to 0.999 µM	1 to 30 µM	< 50%	
Oc1cc(Nc2cccnc2)cc(-c2cccc3cn[nH]c23)c1 [3-(1H-Indazol-7-yl)-5-(pyridin-3-ylamino)-phenol]	1 to 30 µM	0.001 to 0.999 µM	< 50%	< 50%
COc1ccc(COc2cc(Nc3cccnc3)cc(-c3cccc4sccc34)c2)cc1 [[3-Benzo[b]thiophen-4-yl-5-(4-methoxy-benzyloxy)-phenyl]-pyridin-3-yl-amine]	1 to 30 µM	1 to 30 µM		
Oc1cc(Nc2cccnc2)cc(-c2ccccc2C(F)(F)F)c1 [5-(Pyridin-3-ylamino)-2′-trifluoromethyl-biphenyl-3-ol]	1 to 30 µM	> 3 µM	≥ 50%	< 50%
CC(O)(c1cccnc1)c1cc(O)cc(-c2cccc3[nH]ccc23)c1 (centres unmarked) [3-(1-Hydroxy-1-pyridin-3-yl-ethyl)-5-(1H-indol-4-yl)-phenol]	0.001 to 0.999 µM	1 to 30 µM	< 50%	
Cc1cncc(C(=O)c2cc(O)cc(-c3cccc4[nH]ccc34)c2)c1 [[3-Hydroxy-5-(1H-indol-4-yl)-phenyl]-(5-methyl-pyridin-3-yl)-methanone]	0.001 to 0.999 µM	0.001 to 0.999 µM	≥ 50%	≥ 50%
Oc1cc(Nc2cccnc2)cc(-c2cccc3cc[nH]c23)c1 [3-(1H-Indol-7-yl)-5-(pyridin-3-ylamino)-phenol]	> 3 µM	1 to 30 µM	< 50%	< 50%
Oc1cc(Nc2ccc(O)nc2)cc(-c2cccc3[nH]ccc23)c1 [5-[3-Hydroxy-5-(1H-indol-4-yl)-phenylamino]-pyridin-2-ol]	0.001 to 0.999 µM	1 to 30 µM	< 50%	
O=C(c1cc(O)cc(-c2cccc3[nH]ccc23)c1)c1cnccn1 [[3-Hydroxy-5-(1H-indol-4-yl)-phenyl]-pyrazin-2-yl-methanone]	0.001 to 0.999 µM	0.001 to 0.999 µM	< 50%	< 50%
Cc1ccc(C(=O)c2cc(O)cc(-c3cccc4[nH]ccc34)c2)cn1 [[3-Hydroxy-5-(1H-indol-4-yl)-phenyl]-(6-methyl-pyridin-3-yl)-methanone]	1 to 30 µM	0.001 to 0.999 µM	< 50%	
N#Cc1cnc(Nc2cc(O)cc(-c3cccc4[nH]ccc34)c2)cn1 [5-[3-Hydroxy-5-(1H-indol-4-yl)-phenylamino]-pyrazine-2-carbonitrile]	1 to 30 µM	> 3 µM	< 50%	≥ 50%

SMILES	IC50 (Hela cells)	IC50 (Jurkat cells)	activation at 0.1 µM [1]	activation at 1 µM [2]
Oc1cc(Nc2ccncc2)cc(-c2cccc3[nH]ccc23)c1 [3-(1H-Indol-4-yl)-5-(pyridin-4-ylamino)-phenol]	0.001 to 0.999 µM	0.001 to 0.999 µM	≥ 50%	≥ 50%
CS(=O)(=O)Nc1cccc(-c2cc(O)cc(Nc3cccnc3)c2)c1 [N-[5′-Hydroxy-3′-(pyridin-3-ylamino)-biphenyl-3-yl]-methanesulfonamide]	1 to 30 µM	1 to 30 µM	< 50%	≥ 50%
O=[N+]([O-])c1cc(Nc2cccnc2)cc(-c2cccc3[nH]ccc23)c1 [[3-(1H-Indol-4-yl)-5-nitro-phenyl]-pyridin-3-yl-amine]	1 to 30 µM	0.001 to 0.999 µM	< 50%	< 50%
Oc1cc(Nc2cccnc2)cc(-c2ccc3cc[nH]c3c2)c1 [3-(1H-Indol-6-yl)-5-(pyridin-3-ylamino)-phenol]	1 to 30 µM	1 to 30 µM	< 50%	< 50%
Oc1cc(Nc2cccnc2)cc(-c2cccc3[nH]ccc23)c1Cc1ccccc1 [2-Benzyl-3-(1H-Indol-4-yl)-5-(pyridin-3-ylamino)-phenol]	1 to 30 µM	1 to 30 µM	< 50%	< 50%
CN(C)c1cccc(-c2cc(O)cc(Nc3cccnc3)c2)c1 [3′-Dimethylamino-5-(pyridin-3-ylamino)-biphenyl-3-ol]	1 to 30 µM	1 to 30 µM	< 50%	< 50%
Oc1cc(Nc2cccnc2)cc(-c2ccc3c(c2)OCO3)c1 [3-Benzo[1,3]dioxol-5-yl-5-(pyridin-3-ylamino)-phenol]	> 3 µM	1 to 30 µM	< 50%	
O=C(c1cccnc1)c1ccc(O)c(C23CC4CC(CC(C4)C2)C3)c1 [(3-Adamantan-1-yl-4-hydroxy-phenyl)-pyridin-3-yl-methanone]	> 3 µM	1 to 30 µM	< 50%	< 50%
O=C(c1cccnc1)c1cc(O)cc(-c2cccc3[nH]cc(C(=O)C(F)(F)F)c23)c1 [2,2,2-Trifluoro-1-{4-[3-hydroxy-5-(pyridine-3-carbonyl)-phenyl]-1H-indol-3-yl}-ethanone]	1 to 30 µM		< 50%	< 50%
Cn1ccc2cccc(-c3cc(O)cc(Nc4cccnc4)c3)c21 [3-(1-Methyl-1H-indol-7-yl)-5-(pyridin-3-ylamino)-phenol]	> 3 µM	1 to 30 µM	< 50%	
O=C(c1cc(O)cc(-c2cccc3[nH]ccc23)c1)c1cccnc1Cl [(2-Chloro-pyridin-3-yl)-[3-hydroxy-5-(1H-indol-4-yl)-phenyl]-methanone]	1 to 30 µM	1 to 30 µM	< 50%	< 50%
COc1cc(-c2cccc3[nH]ccc23)nc(Nc2cccnc2)n1 [[4-(1H-Indol-4-yl)-6-methoxy-pyrimidin-2-yl]-pyridin-3-ylamine]	1 to 30 µM		< 50%	< 50%
Oc1cc(Nc2cccnc2)cc(-c2cnc3ccccc3c2)c1 [3-(Pyridin-3-ylamino)-5-quinolin-3-yl-phenol]	1 to 30 µM	0.001 to 0.999 µM	< 50%	< 50%
COc1ccc(Cc2c(O)cc(Nc3cccnc3)cc2-c2cccc3sccc23)cc1 [3-benzo[b]thiophen-4-yl-2-(4-methoxy-benzyl)-5-(pyridin-3-ylamino)-phenol]	1 to 30 µM	1 to 30 µM	≥ 50%	< 50%
Oc1ccc(C(O)c2cccnc2)cc1C12CC3CC(CC(C3)C1)C2 (centres unmarked) [2-Adamantan-1-yl-4-(hydroxy-pyridin-3-yl-methyl)-phenol]	> 3 µM	1 to 30 µM	< 50%	

Reference: patent US20080280891A1, “Anti-cancer agents and uses thereof” (Locus Pharmaceuticals, Inc., priority 2006, published 2008)
